Results reported in ChEMBL document CHEMBL1150575, “Microbial transformation of hypoestenone” (2001).
≈ marks a conversion by molar mass, not a printed value.

Assays:
Assay type in all cases: functional
Cryptococcus neoformans = assay: Antimicrobial activity against Cryptococcus neoformans by microtiter-plate assay
Pseudomonas aeruginosa = assay: Antimicrobial activity against Pseudomonas aeruginosa by microtiter-plate assay
Plasmodium falciparum = assay: Antiparasitic activity against Plasmodium falciparum W2

MIC (Cryptococcus neoformans) [mg/L] | MIC (Pseudomonas aeruginosa) [mg/L] | MIC (Plasmodium falciparum) [mg/L] | Structure (SMILES)
50 (≈ 158 µM) |  |  | CC1=C2C[C@]3(C)C(=O)C[C@@H](C(C)C)[C@H]3C[C@H]3O[C@@]3(C)[C@@H]2CC1=O
20 (≈ 66.6 µM) | 45 (≈ 150 µM) | 2.8 (≈ 9.32 µM) | CC1=C2C[C@]3(C)C(=O)C[C@@H](C(C)C)[C@H]3C/C=C(/C)[C@@H]2CC1=O [HYPOESTENONE]
